{"source": "paper PMC11678425", "about": "“(-)-Syringaresinol Exerts an Antidepressant-like Activity in Mice by Noncompetitive Inhibition of the Serotonin Transporter” (Pharmaceuticals, 2024)", "key": {"SERT Y107C/C109A": {"test_system": "SERT Y107C/C109A", "test": "Cysteine accessibility, extracellular pathway: MTSET reactivity with Y107C/C109A", "assay_type": "cell-based", "details": "10 μM ligand, compared with the control (MTSET alone)"}, "SERT S277C/X5C": {"test_system": "SERT S277C/X5C", "test": "Cysteine accessibility, cytoplasmic pathway: MTSEA reactivity with S277C/X5C", "assay_type": "cell-based", "details": "10 μM ligand, digitonin-permeabilized cells, compared with the control"}}, "data": [{"molecule": "NCCc1c[nH]c2ccc(O)cc12", "note": "[5-HT, 5-hydroxytryptamine, reference compound]", "values": [{"measurement": "rate constant of MTSET reactivity with Y107C/C109A", "setting": "SERT Y107C/C109A", "value": "decreased"}, {"measurement": "rate constant of MTSEA reactivity with S277C/X5C", "setting": "SERT S277C/X5C", "value": "increased"}]}]}
